Test results published in patent US11440907B1 (Merck Patent GmbH, priority 2018, dated 2022).

Legend:
Type in all cases: cell-based
[1] = test system: β-catenin-TCF-mediated reporter transcription activity in Colo 205 cells; experiment: Colo 205 reporter assay (TCF/LEF promoter-driven firefly luciferase); settings: Homo sapiens; Colo 205 TCF/LEF luciferase reporter, 5 hours after compound addition, 384 well; read-out: Colo205 IC50
[2] = test system: XBP1(u)-luciferase splicing reporter in HepG2 hepatoma cells; experiment: HepG2 XBP1 reporter assay (XBP1(u)-Luc); settings: Homo sapiens, 6 hours after compound addition, Table 3, read-out: XBP1-luc HepG2 1 EC50
[3] = test system: intracellular calcium flux in Colo-205 cells; experiment: Calcium flux assay (FLIPR Calcium 5 Assay Kit, FLIPR3); settings: Homo sapiens, 0.6 h, calcium flux measured over 36 minutes, read-out: Colo 205 Calcium Flux assay 384w Boston Ca assay FLIPR3 Colo EC50
Description: Compounds described herein induced ER stress by causing intracellular calcium flux. Calcium flux was measured in Colo-205 cells using the FLIPR® Calcium 5 Assay Kit according to manufacturer's protocol (Molecular Devices, Cat. #R8186) on a FLIPR3 system (Molecular Devices). Calcium flux is measured over 36 minutes. The Colo-205 calcium flux assay data are summarized in Table 3: A<0.6 μM; 0.6 μM≤B<2.0 μM; 2.0 μM≤C<10.0 μM; D≥10.0 μM.

Compound	IC50 [1]	EC50 [2]	EC50 [3]
CCNC(=O)c1ccc(Cl)c(C2COCCCN2c2cc(C)nc(N)n2)c1 (racemic) [I-173, (+/−)-3-[4-(2-amino-6-methyl-pyrimidin-4-yl)-1,4-oxazepan-3-yl]-4-chloro-N-ethyl-benzamide]	300 to 1000 nM	600 to 2000 nM	< 600 nM
CNc1ccc(Cl)c(C2COCCCN2c2cc(C)nc(N)n2)c1 (racemic) [I-175, (+/−)-4-[3-[2-chloro-5-(methylamino)phenyl]-1,4-oxazepan-4-yl]-6-methyl-pyrimidin-2-amine]	< 300 nM	< 600 nM	< 600 nM
Cc1cc(N2CCCOCC2c2cc(NC(=O)C3CCO3)ccc2Cl)nc(N)n1 (racemic) [I-184, (+/−)-N-[3-[4-(2-amino-6-methyl-pyrimidin-4-yl)-1,4-oxazepan-3-yl]-4-chloro-phenyl]oxetane-2-carboxamide]	300 to 1000 nM	2000 to 5000 nM	< 600 nM
Cc1cc(N2CCCOCC2c2cc(NC(=O)CC3COC3)ccc2Cl)nc(N)n1 (racemic) [I-185, (+/−)-N-[3-[4-(2-amino-6-methyl-pyrimidin-4-yl)-1,4-oxazepan-3-yl]-4-chloro-phenyl]-2-(oxetan-3-yl)acetamide]	300 to 1000 nM	2000 to 5000 nM	< 600 nM
Cc1cc(N2CCCOCC2c2ccc(N(C)C3COC3)cc2Cl)nc(N)n1 (racemic) [I-186, (+/−)-4-[3-[2-chloro-4-[methyl(oxetan-3-yl)amino]phenyl]-1,4-oxazepan-4-yl]-6-methyl-pyrimidin-2-amine]	< 300 nM	< 600 nM	< 600 nM
Cc1cc(N2CCCOCC2c2cc3nccn3cc2Cl)nc(N)n1 (racemic) [I-191, 4-(3-(6-chloroimidazo[1,2-a]pyridin-7-yl)-1,4-oxazepan-4-yl)-6-methylpyrimidin-2-amine]	300 to 1000 nM	600 to 2000 nM	< 600 nM
COCC(=O)Nc1ccc(C2COCCCN2c2cc(C)nc(N)n2)c(Cl)c1 (racemic) [I-192, (+/−)-N-[4-[4-(2-amino-6-methyl-pyrimidin-4-yl)-1,4-oxazepan-3-yl]-3-chloro-phenyl]-2-methoxy-acetamide]	300 to 1000 nM	< 600 nM	< 600 nM
Cc1cc(N2CCCOCC2c2ccc(N3CCCS3(=O)=O)cc2Cl)nc(N)n1 (racemic) [I-193, (+/−)-4-[3-[2-chloro-4-(1,1-dioxo-1,2-thiazolidin-2-yl)phenyl]-1,4-oxazepan-4-yl]-6-methyl-pyrimidin-2-amine]	< 300 nM	< 600 nM	< 600 nM
Cc1cc(N2CCCOCC2c2cc(N3CCCC3)ccc2Cl)nc(N)n1 (racemic) [I-199, (+/−)-4-[3-(2-chloro-5-pyrrolidin-1-yl-phenyl)-1,4-oxazepan-4-yl]-6-methyl-pyrimidin-2-amine]	300 to 1000 nM	600 to 2000 nM	< 600 nM
Cc1cc(N2CCCOCC2c2ccc(P(C)(C)=O)cc2Cl)nc(N)n1 (racemic) [I-202, (+/−)-4-[3-(2-chloro-4-dimethylphosphoryl-phenyl)-1,4-oxazepan-4-yl]-6-methyl-pyrimidin-2-amine]	300 to 1000 nM	≥ 5000 nM	600 to 2000 nM
COCc1ccc(C2COCCCN2c2cc(C)nc(N)n2)c(Cl)c1 (racemic) [I-205, (+/−)-4-[3-[2-chloro-4-(methoxymethyl)phenyl]-1,4-oxazepan-4-yl]-6-methyl-pyrimidin-2-amine]	300 to 1000 nM	< 600 nM	< 600 nM
Cc1cc(N2CCCOCC2c2ccc(CS(C)(=O)=O)cc2Cl)nc(N)n1 (racemic) [I-208, (+/−)-4-(3-(2-chloro-4-((methylsulfonyl)methyl)phenyl)-1,4-oxazepan-4-yl)-6-methylpyrimidin-2-amine]	< 300 nM	< 600 nM	< 600 nM
Cc1cc(N2CCCOCC2c2cc(N3CCOCC3)ccc2Cl)nc(N)n1 (racemic) [I-226, (+/−)-4-(3-(2-chloro-5-morpholinophenyl)-1,4-oxazepan-4-yl)-6-methylpyrimidin-2-amine]	300 to 1000 nM	< 600 nM	< 600 nM
COc1ccc(OC)c([C@H]2CCCCCN2c2cc(C)nc(N)n2)c1 (single isomer, unassigned) [I-40]	< 300 nM	< 600 nM	< 600 nM
Cc1cc(N2CCCOC[C@@H]2c2ccc(S(C)(=O)=O)cc2Cl)nc(N)n1 (single isomer, unassigned) [I-68]	300 to 1000 nM	< 600 nM	< 600 nM
CC(=O)Nc1ccc([C@H]2COCCCN2c2cc(C)nc(N)n2)c(Cl)c1 (single isomer, unassigned) [I-162]	< 300 nM	< 600 nM	< 600 nM
Cc1cc(N2CCCOC[C@H]2c2cc(NC(=O)C(F)(F)F)ccc2Cl)nc(N)n1 (single isomer, unassigned) [I-176]	300 to 1000 nM	600 to 2000 nM	< 600 nM
Cc1cc(N2CCCOCC2c2cc(NC(=O)C(F)(F)F)ccc2Cl)nc(N)n1 (single isomer, unassigned) [I-177, N-(3-(4-(2-amino-6-methylpyrimidin-4-yl)-1,4-oxazepan-3-yl)-4-chlorophenyl)-2,2,2-trifluoroacetamide]	< 300 nM	< 600 nM	< 600 nM

Compound	IC50 [1]	EC50 [2]	EC50 [3]
CNc1ccc(Cl)c([C@H]2COCCCN2c2cc(C)nc(N)n2)c1 (single isomer, unassigned) [I-178, 4-[3-[2-chloro-5-(methylamino)phenyl]-1,4-oxazepan-4-yl]-6-methyl-pyrimidin-2-amine]	< 300 nM	< 600 nM	< 600 nM
Cc1cc(N2CCCOC[C@H]2c2ccc(NS(C)(=O)=O)cc2Cl)nc(N)n1 (single isomer, unassigned) [I-179, N-[4-[4-(2-amino-6-methyl-pyrimidin-4-yl)-1,4-oxazepan-3-yl]-3-chloro-phenyl]methanesulfonamide]	< 300 nM	< 600 nM	< 600 nM
Cc1cc(N2CCCOC[C@@H]2c2ccc(N(C)C3COC3)cc2Cl)nc(N)n1 (single isomer, unassigned) [I-190]	< 300 nM	< 600 nM	< 600 nM
Cc1cc(N2CCCOC[C@@H]2c2ccc(NC(=O)C3(O)CC3)cc2Cl)nc(N)n1 (single isomer, unassigned) [I-197]	300 to 1000 nM	< 600 nM	< 600 nM
CCC(=O)Nc1ccc([C@H]2COCCCN2c2cc(C)nc(N)n2)c(Cl)c1 (single isomer, unassigned) [I-204]	< 300 nM	< 600 nM	< 600 nM
Cc1cc(N2CCCOC[C@@H]2c2ccc(NC(=O)C3CC3)cc2Cl)nc(N)n1 (single isomer, unassigned) [I-207]	< 300 nM	< 600 nM	< 600 nM
Cc1cc(N2CCCOC[C@@H]2c2cc3nccn3cc2Cl)nc(N)n1 (single isomer, unassigned) [I-221, 4-[3-(6-chloroimidazo[1,2-a]pyridin-7-yl)-1,4-oxazepan-4-yl]-6-methyl-pyrimidin-2-amine]	< 300 nM	< 600 nM	< 600 nM
Cc1cc(N2CCCOC[C@@H]2c2ccc(CS(C)(=O)=O)cc2Cl)nc(N)n1 (single isomer, unassigned) [I-224]	< 300 nM	< 600 nM	< 600 nM
COc1cc(Cl)ccc1C1CCCCCN1c1cc(C)nc(N)n1 (stereo not drawn) [I-20, 4-(2-(4-chloro-2-methoxyphenyl)azepan-1-yl)-6-methylpyrimidin-2-amine]	300 to 1000 nM	600 to 2000 nM	600 to 2000 nM
COc1ccc(Cl)cc1C1CCCCCN1c1cc(C)nc(N)n1 (stereo not drawn) [I-21, 4-(2-(5-chloro-2-methoxyphenyl)azepan-1-yl)-6-methylpyrimidin-2-amine]	300 to 1000 nM	2000 to 5000 nM	600 to 2000 nM
COc1cc(F)ccc1C1CCCCCN1c1cc(C)nc(N)n1 (stereo not drawn) [I-22, 4-(2-(4-fluoro-2-methoxyphenyl)azepan-1-yl)-6-methylpyrimidin-2-amine]	300 to 1000 nM	600 to 2000 nM	< 600 nM
CC(=O)Nc1ccc(Cl)c([C@@H]2COCCCN2c2cc(C)nc(N)n2)c1 [I-92]	< 300 nM	< 600 nM	< 600 nM
CNC(=O)c1ccc([C@H]2COCCCN2c2cc(C)nc(N)n2)c(Cl)c1 [I-150, (S)-4-(4-(2-amino-6-methylpyrimidin-4-yl)-1,4-oxazepan-3-yl)-3-chloro-N-methylbenzamide]	300 to 1000 nM	2000 to 5000 nM	< 600 nM
CNC(=O)c1ccc(Cl)c([C@@H]2COCCCN2c2cc(C)nc(N)n2)c1 [I-181]	< 300 nM	< 600 nM	< 600 nM
CCS(=O)(=O)c1ccc([C@H]2COCCCN2c2cc(C)nc(N)n2)c(Cl)c1 [I-183, 4-(3-(2-chloro-4-(ethylsulfonyl)phenyl)-1,4-oxazepan-4-yl)-6-methylpyrimidin-2-amine]	300 to 1000 nM	< 600 nM	< 600 nM
Cc1cc(N2CCCOC[C@H]2c2ccc(C(N)=O)cc2Cl)nc(N)n1 [I-188]	< 300 nM	600 to 2000 nM	< 600 nM
Cc1cc(N2CCCOC[C@@H]2c2ccc(P(C)(C)=O)cc2Cl)nc(N)n1 [I-214, 4-[3-(2-chloro-4-dimethylphosphoryl-phenyl)-1,4-oxazepan-4-yl]-6-methyl-pyrimidin-2-amine]	300 to 1000 nM	2000 to 5000 nM	< 600 nM
